Entries after “also recorded” stand apart in the source; their conditions may differ.
Assay: Treatment-emergent adverse events (MedDRA, NCI-CTCAE v4.03), safety populations
Assay type: in vivo, human
Experimental: Overall safety in Parts A and B was assessed by tabulating TEAEs, coded using the Medical Dictionary for Regulatory Activities (MedDRA) version 22.1, and graded according to NCI-CTCAE v4.03 criteria. TEAEs were classified as related or unrelated to amcenestrant therapy based upon the local investigating physician’s clinical judgment. The safety population included all patients exposed to at least one dose of the study treatment. Results were analyzed using descriptive statistics.

## O=C(O)c1ccc2c(c1)CCCC(c1ccc(Cl)cc1Cl)=C2c1ccc(O[C@H]2CCN(CCCF)C2)cc1 [amcenestrant, 6-(2,4-Dichlorophenyl)−5-[4-[(3S)−1-(3-fluoropropyl)pyrrolidin-3-yl]oxyphenyl]−8,9-dihydro-7H-benzo[7]annulene-2-carboxylic acid]
300 mg BID, 6 participants
  TEAE diarrhea: 3 n
  participants with at least 1 TEAE regardless of relationship: 6 participants
Part A
  TEAE leading to treatment discontinuation: No TEAE led to treatment discontinuation
Part A (n = 16)
  treatment-related TEAE asthenia, patients: 18.8%
  treatment-related TEAE constipation, patients: 18.8%
  treatment-related TEAE decreased appetite, patients: 18.8%
  treatment-related TEAE diarrhea, patients: 25.0%
  treatment-related TEAE hot flush, patients: 31.3%
  treatment-related TEAE nausea, patients: 25.0%
  treatment-related TEAE night sweats, patients: 18.8%
Part A, 20-600 mg QD (N = 16)
  Any TEAE, TEAEs, All grades: 16 (100) n (%)
  Any TEAE, TEAEs, Grade 1: 5 (31.3) n (%)
  Any TEAE, TEAEs, Grade 2: 7 (43.8) n (%)
  Any TEAE, TEAEs, Grade ≥3: 4 (25.0) n (%)
  Any TEAE, Treatment-related TEAEs, All Grades: 13 (81.3) n (%)
  Any TEAE, Treatment-related TEAEs, Grade 1: 10 (62.5) n (%)
  Any TEAE, Treatment-related TEAEs, Grade 2: 3 (18.8) n (%)
  Any TEAE, Treatment-related TEAEs, Grade ≥3: 0 n (%)
  Arthralgia, TEAEs, All grades: 5 (31.3) n (%)
  Arthralgia, TEAEs, Grade 1: 2 (12.5) n (%)
  Arthralgia, TEAEs, Grade 2: 3 (18.8) n (%)
  Arthralgia, TEAEs, Grade ≥3: 0 n (%)
  Arthralgia, Treatment-related TEAEs, All Grades: 2 (12.5) n (%)
  Arthralgia, Treatment-related TEAEs, Grade 1: 1 (6.3) n (%)
  Arthralgia, Treatment-related TEAEs, Grade 2: 1 (6.3) n (%)
  Arthralgia, Treatment-related TEAEs, Grade ≥3: 0 n (%)
  Asthenia, TEAEs, All grades: 4 (25.0) n (%)
  Asthenia, TEAEs, Grade 1: 2 (12.5) n (%)
  Asthenia, TEAEs, Grade 2: 2 (12.5) n (%)
  Asthenia, TEAEs, Grade ≥3: 0 n (%)
  Asthenia, Treatment-related TEAEs, All Grades: 3 (18.8) n (%)
  Asthenia, Treatment-related TEAEs, Grade 1: 3 (18.8) n (%)
  Asthenia, Treatment-related TEAEs, Grade 2: 0 n (%)
  Asthenia, Treatment-related TEAEs, Grade ≥3: 0 n (%)
  Back pain, TEAEs, All grades: 3 (18.8) n (%)
  Back pain, TEAEs, Grade 1: 2 (12.5) n (%)
  Back pain, TEAEs, Grade 2: 0 n (%)
  Back pain, TEAEs, Grade ≥3: 1 (6.3) n (%)
  Back pain, Treatment-related TEAEs, All Grades: 1 (6.3) n (%)
  Back pain, Treatment-related TEAEs, Grade 1: 1 (6.3) n (%)
  Back pain, Treatment-related TEAEs, Grade 2: 0 n (%)
  Back pain, Treatment-related TEAEs, Grade ≥3: 0 n (%)
  Constipation, TEAEs, All grades: 6 (37.5) n (%)
  Constipation, TEAEs, Grade 1: 5 (31.3) n (%)
  Constipation, TEAEs, Grade 2: 1 (6.3) n (%)
  Constipation, TEAEs, Grade ≥3: 0 n (%)
  Constipation, Treatment-related TEAEs, All Grades: 3 (18.8) n (%)
  Constipation, Treatment-related TEAEs, Grade 1: 3 (18.8) n (%)
  Constipation, Treatment-related TEAEs, Grade 2: 0 n (%)
  Constipation, Treatment-related TEAEs, Grade ≥3: 0 n (%)
  Decreased appetite, TEAEs, All grades: 6 (37.5) n (%)
  Decreased appetite, TEAEs, Grade 1: 6 (37.5) n (%)
  Decreased appetite, TEAEs, Grade 2: 0 n (%)
  Decreased appetite, TEAEs, Grade ≥3: 0 n (%)
  Decreased appetite, Treatment-related TEAEs, All Grades: 3 (18.8) n (%)
  Decreased appetite, Treatment-related TEAEs, Grade 1: 3 (18.8) n (%)
  Decreased appetite, Treatment-related TEAEs, Grade 2: 0 n (%)
  Decreased appetite, Treatment-related TEAEs, Grade ≥3: 0 n (%)
  Diarrhea, TEAEs, All grades: 6 (37.5) n (%)
  Diarrhea, TEAEs, Grade 1: 5 (31.3) n (%)
  Diarrhea, TEAEs, Grade 2: 1 (6.3) n (%)
  Diarrhea, TEAEs, Grade ≥3: 0 n (%)
  Diarrhea, Treatment-related TEAEs, All Grades: 4 (25.0) n (%)
  Diarrhea, Treatment-related TEAEs, Grade 1: 3 (18.8) n (%)
  Diarrhea, Treatment-related TEAEs, Grade 2: 1 (6.3) n (%)
  Diarrhea, Treatment-related TEAEs, Grade ≥3: 0 n (%)
  Dyspnea, TEAEs, All grades: 4 (25.0) n (%)
  Dyspnea, TEAEs, Grade 1: 2 (12.5) n (%)
  Dyspnea, TEAEs, Grade 2: 1 (6.3) n (%)
  Dyspnea, TEAEs, Grade ≥3: 1 (6.3) n (%)
  Dyspnea, Treatment-related TEAEs, All Grades: 1 (6.3) n (%)
  Dyspnea, Treatment-related TEAEs, Grade 1: 1 (6.3) n (%)
  Dyspnea, Treatment-related TEAEs, Grade 2: 0 n (%)
  Dyspnea, Treatment-related TEAEs, Grade ≥3: 0 n (%)
  Fatigue, TEAEs, All grades: 4 (25.0) n (%)
  Fatigue, TEAEs, Grade 1: 3 (18.8) n (%)
  Fatigue, TEAEs, Grade 2: 0 n (%)
  Fatigue, TEAEs, Grade ≥3: 1 (6.3) n (%)
  Fatigue, Treatment-related TEAEs, All Grades: 2 (12.5) n (%)
  Fatigue, Treatment-related TEAEs, Grade 1: 2 (12.5) n (%)
  Fatigue, Treatment-related TEAEs, Grade 2: 0 n (%)
  Fatigue, Treatment-related TEAEs, Grade ≥3: 0 n (%)
  Hot flush, TEAEs, All grades: 6 (37.5) n (%)
  Hot flush, TEAEs, Grade 1: 6 (37.5) n (%)
  Hot flush, TEAEs, Grade 2: 0 n (%)
  Hot flush, TEAEs, Grade ≥3: 0 n (%)
  Hot flush, Treatment-related TEAEs, All Grades: 5 (31.3) n (%)
  Hot flush, Treatment-related TEAEs, Grade 1: 5 (31.3) n (%)
  Hot flush, Treatment-related TEAEs, Grade 2: 0 n (%)
  Hot flush, Treatment-related TEAEs, Grade ≥3: 0 n (%)
  Hypoesthesia, TEAEs, All grades: 3 (18.8) n (%)
  Hypoesthesia, TEAEs, Grade 1: 3 (18.8) n (%)
  Hypoesthesia, TEAEs, Grade 2: 0 n (%)
  Hypoesthesia, TEAEs, Grade ≥3: 0 n (%)
  Hypoesthesia, Treatment-related TEAEs, All Grades: 0 n (%)
  Hypoesthesia, Treatment-related TEAEs, Grade 1: 0 n (%)
  Hypoesthesia, Treatment-related TEAEs, Grade 2: 0 n (%)
  Hypoesthesia, Treatment-related TEAEs, Grade ≥3: 0 n (%)
  Nausea, TEAEs, All grades: 6 (37.5) n (%)
  Nausea, TEAEs, Grade 1: 3 (18.8) n (%)
  Nausea, TEAEs, Grade 2: 3 (18.8) n (%)
  Nausea, TEAEs, Grade ≥3: 0 n (%)
  Nausea, Treatment-related TEAEs, All Grades: 4 (25.0) n (%)
  Nausea, Treatment-related TEAEs, Grade 1: 3 (18.8) n (%)
  Nausea, Treatment-related TEAEs, Grade 2: 1 (6.3) n (%)
  Nausea, Treatment-related TEAEs, Grade ≥3: 0 n (%)
  Night sweat, TEAEs, All grades: 3 (18.8) n (%)
  Night sweat, TEAEs, Grade 1: 3 (18.8) n (%)
  Night sweat, TEAEs, Grade 2: 0 n (%)
  Night sweat, TEAEs, Grade ≥3: 0 n (%)
  Night sweat, Treatment-related TEAEs, All Grades: 3 (18.8) n (%)
  Night sweat, Treatment-related TEAEs, Grade 1: 3 (18.8) n (%)
  Night sweat, Treatment-related TEAEs, Grade 2: 0 n (%)
  Night sweat, Treatment-related TEAEs, Grade ≥3: 0 n (%)
  Urinary tract infection, TEAEs, All grades: 4 (25.0) n (%)
  Urinary tract infection, TEAEs, Grade 1: 0 n (%)
  Urinary tract infection, TEAEs, Grade 2: 3 (18.8) n (%)
  Urinary tract infection, TEAEs, Grade ≥3: 1 (6.3) n (%)
  Urinary tract infection, Treatment-related TEAEs, All Grades: 0 n (%)
  Urinary tract infection, Treatment-related TEAEs, Grade 1: 0 n (%)
  Urinary tract infection, Treatment-related TEAEs, Grade 2: 0 n (%)
  Urinary tract infection, Treatment-related TEAEs, Grade ≥3: 0 n (%)
Part A, Grade 1 palpitations and Grade 2 prolonged QT interval
  cardiac non-treatment-related TEAEs: 2 patients
Part A, Grade 1 photophobia
  eye disorder treatment-related TEAE: 1 patient
Part A, associated with disease progression, considered unrelated to amcenestrant
  serious TEAEs: three patients
Part B
  TEAE leading to treatment discontinuation: one Grade ≥3 TEAE of pneumonia led to treatment discontinuation
  eye disorder non-treatment-related TEAEs: Three eye disorder non-treatment-related TEAEs were reported in two patients
Part B / overall, by investigator
  serious TEAEs related to amcenestrant: none were considered related to amcenestrant; also recorded: No serious AEs were considered treatment-related
Part B, 400 mg QD (N = 49)
  ALT increased, TEAEs, All grades: 3 (6.1) n (%)
  ALT increased, TEAEs, Grade 1: 0 n (%)
  ALT increased, TEAEs, Grade 2: 0 n (%)
  ALT increased, TEAEs, Grade ≥3: 3 (6.1) n (%)
  ALT increased, Treatment-related TEAEs, All Grades: 0 n (%)
  ALT increased, Treatment-related TEAEs, Grade 1: 0 n (%)
  ALT increased, Treatment-related TEAEs, Grade 2: 0 n (%)
  ALT increased, Treatment-related TEAEs, Grade ≥3: 0 n (%)
  AST increased, TEAEs, All grades: 3 (6.1) n (%)
  AST increased, TEAEs, Grade 1: 0 n (%)
  AST increased, TEAEs, Grade 2: 0 n (%)
  AST increased, TEAEs, Grade ≥3: 3 (6.1) n (%)
  AST increased, Treatment-related TEAEs, All Grades: 0 n (%)
  AST increased, Treatment-related TEAEs, Grade 1: 0 n (%)
  AST increased, Treatment-related TEAEs, Grade 2: 0 n (%)
  AST increased, Treatment-related TEAEs, Grade ≥3: 0 n (%)
  Abdominal pain upper, TEAEs, All grades: 6 (12.2) n (%)
  Abdominal pain upper, TEAEs, Grade 1: 2 (4.1) n (%)
  Abdominal pain upper, TEAEs, Grade 2: 4 (8.2) n (%)
  Abdominal pain upper, TEAEs, Grade ≥3: 0 n (%)
  Abdominal pain upper, Treatment-related TEAEs, All Grades: 1 (2.0) n (%)
  Abdominal pain upper, Treatment-related TEAEs, Grade 1: 1 (2.0) n (%)
  Abdominal pain upper, Treatment-related TEAEs, Grade 2: 0 n (%)
  Abdominal pain upper, Treatment-related TEAEs, Grade ≥3: 0 n (%)
  Abdominal pain, TEAEs, All grades: 11 (22.4) n (%)
  Abdominal pain, TEAEs, Grade 1: 8 (16.3) n (%)
  Abdominal pain, TEAEs, Grade 2: 3 (6.1) n (%)
  Abdominal pain, TEAEs, Grade ≥3: 0 n (%)
  Abdominal pain, Treatment-related TEAEs, All Grades: 2 (4.1) n (%)
  Abdominal pain, Treatment-related TEAEs, Grade 1: 2 (4.1) n (%)
  Abdominal pain, Treatment-related TEAEs, Grade 2: 0 n (%)
  Abdominal pain, Treatment-related TEAEs, Grade ≥3: 0 n (%)
  Any TEAE, TEAEs, All grades: 49 (100) n (%)
  Any TEAE, TEAEs, Grade 1: 11 (22.4) n (%)
  Any TEAE, TEAEs, Grade 2: 22 (44.9) n (%)
  Any TEAE, TEAEs, Grade ≥3: 16 (32.7) n (%)
  Any TEAE, Treatment-related TEAEs, All Grades: 26 (53.1) n (%)
  Any TEAE, Treatment-related TEAEs, Grade 1: 21 (42.9) n (%)
  Any TEAE, Treatment-related TEAEs, Grade 2: 5 (10.2) n (%)
  Any TEAE, Treatment-related TEAEs, Grade ≥3: 0 n (%)
  Arthralgia, TEAEs, All grades: 10 (20.4) n (%)
  Arthralgia, TEAEs, Grade 1: 7 (14.3) n (%)
  Arthralgia, TEAEs, Grade 2: 3 (6.1) n (%)
  Arthralgia, TEAEs, Grade ≥3: 0 n (%)
  Arthralgia, Treatment-related TEAEs, All Grades: 4 (8.2) n (%)
  Arthralgia, Treatment-related TEAEs, Grade 1: 3 (6.1) n (%)
  Arthralgia, Treatment-related TEAEs, Grade 2: 1 (2.0) n (%)
  Arthralgia, Treatment-related TEAEs, Grade ≥3: 0 n (%)
  Asthenia, TEAEs, All grades: 10 (20.4) n (%)
  Asthenia, TEAEs, Grade 1: 7 (14.3) n (%)
  Asthenia, TEAEs, Grade 2: 3 (6.1) n (%)
  Asthenia, TEAEs, Grade ≥3: 0 n (%)
  Asthenia, Treatment-related TEAEs, All Grades: 2 (4.1) n (%)
  Asthenia, Treatment-related TEAEs, Grade 1: 2 (4.1) n (%)
  Asthenia, Treatment-related TEAEs, Grade 2: 0 n (%)
  Asthenia, Treatment-related TEAEs, Grade ≥3: 0 n (%)

From paper PMC9284491 (Nature Communications, 2022)
